Test results: PMC6026274, “A GLP-1:CCK fusion peptide harnesses the synergistic effects on metabolism of CCK-1 and GLP-1 receptor agonism in mice” (Appetite, 2018)
Starred links: 1 amine or outer side, 2 acyl side, 3 side chain; linkers in the order of their positions; H or OH if unused. Non-standard residues stand in square brackets, D forms with d. Residues, ends and D or L forms follow the SMILES beside them. Groups on a side chain read outwards from the residue. *: point of attachment. NMeF = CN[C@@H](Cc1ccccc1)C(=O)O; NH(2-Me-phenyl) = Cc1ccccc1N*; Nle = CCCC[C@H](N)C(=O)O; X1 = O=C(Cc1ccc(O)cc1)*; CO = O=C([*:1])[*:2]

Tests used:
Sprague Dawley rats = experiment: Kaolin intake in lean rats; format: in vivo; settings: overnight fasted lean rats, single i.p. injection; C2816 7 or 50 nmol/kg, cisplatin 10 mg/kg; vs vehicle; n = 9/group
Procedure: After the acclimation period, rats were given chow and kaolin diet (K50001, Research Diets, Billerica, MA) in adjacent separate compartments in a divided food hopper. Rats were randomized to treatment groups based on 24 h chow intake, 24 h kaolin intake and body weight (n = 9/group). […] Cisplatin (10 mg/kg; Sigma-Aldrich, St Louis, MO) was administered i.p. as a positive control. Chow and kaolin intake was recorded at 4 and 24 h. A final body weight was also recorded at 24 h.

[1] = tested on: diet-induced obese (DIO) C57BL6 mice; experiment: Pharmacology study in DIO mice; format: in vivo; settings: AC3174 and AC170222 7 nmol/kg each, C2816 and (pGlu-Gln)-CCK-8/exendin-4 50 nmol/kg
Procedure: Obese male 10-week old C57BL6 mice (Jackson Laboratory) on high-fat diet (D12492, 60% kcal/fat, Research Diets) were single housed upon arrival and allowed to acclimate for 2 weeks. On day −3 mice were weighed and randomized to treatment groups (n = 8/group) based on body weight, with each mouse dosed once daily with two compounds or vehicle administered separately. […] Drug was administered once daily for 10 days intraperitoneally (5 mL/kg) 2 h prior to lights off.

[2] = terminal plasma, day 10, once daily i.p., mean ± SEM, n = 8, SEM

SMILES: N.N.[Cl][Pt][Cl] [cisplatin, Cisplatin]
- Food (chow) intake at 4 h and 24 h post-dose (Sprague Dawley rats): similarly reduced food intake as high dose C2816

SMILES: CCCC[C@H](NC(=O)Cc1ccc(O)cc1)C(=O)NCC(=O)N[C@@H](Cc1c[nH]c2ccccc12)C(=O)N[C@@H](CCCCNC(=O)Nc1ccccc1C)C(=O)N[C@@H](CC(=O)O)C(=O)N(C)[C@@H](Cc1ccccc1)C(N)=O [AC170222] (X1-[Nle]GWK([CO-NH(2-Me-phenyl)])D[NMeF]-NH2)
- Body weight change ([1]; DIO mice, once daily i.p. for 10 days, n = 8/group): did not affect
- Glucose ([1]; terminal non-fasted blood glucose, day 10, once daily i.p., mean ± SEM, n = 8, SEM): 280 ± 11 mg/dL
- ALT [1, 2]: 86 ± 32 U/L
- AST [1, 2]: 95 ± 27 U/L
- Amylase [1, 2]: 2759 ± 75 U/L
- Cholesterol [1, 2]: 192 ± 28 mg/dL
- Insulin [1, 2]: 11.3 ± 4.1 ng/mL
- Lipase [1, 2]: 77 ± 49 U/L
- Triglycerides [1, 2]: 114 ± 6 mg/dL
